From patent US20260176320A1, “MODULATORS OF G-PROTEIN COUPLED RECEPTORS” (priority 2018, published 2026)
Where two headings read alike, the source gives them in different places. Numbered stars: 1 amine (or outer) side, 2 acyl side, 3 side chain; on linkers, the order of the positions; unused ones are H or OH. Square brackets hold non-standard residues; d marks the D form. Side chains are listed from the residue outwards. Peptide text beside a SMILES is read from it. * marks the point of attachment. X8 = O=C([C@@H](Cc1nn[nH]n1)N[*:1])[*:2]; γGlu = O=C(O)[C@H](CCC(=O)[*:2])N[*:1]; Palmitoyl = CCCCCCCCCCCCCCCC(=O)*; X6 = O=C(CSCC(=O)*)NCCN1CCCCC1=O; Aib = CC(C)(N)C(=O)O

Experiments:
[1] = molecular target: GLP-1R (Homo sapiens, UniProt P43220); assay: HitHunter cAMP assay (GLP-1R); assay type: cell-based; conditions: Table 3A, cAMP; for Emax: read-out: (Emax) GLP-1R
Summary of the method: (§1)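 cAMP accumulation read by luminescent HitHunter immunocompetition after 30 min room-temperature agonist stimulation. Agonists tested as 22-point twofold dilutions, in duplicate, on 10,000 cells/well in HBSS containing 625 μM IBMX, 10 mM HEPES and 0.2% BSA.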

[2] = molecular target: T1, GIP-R (Homo sapiens, UniProt P48546); assay: HitHunter cAMP assay (GIP-R); assay type: cell-based; conditions: Table 3A, cAMP; for Emax: read-out: (Emax) GIP-R
T1 sequence (P48546 22-466): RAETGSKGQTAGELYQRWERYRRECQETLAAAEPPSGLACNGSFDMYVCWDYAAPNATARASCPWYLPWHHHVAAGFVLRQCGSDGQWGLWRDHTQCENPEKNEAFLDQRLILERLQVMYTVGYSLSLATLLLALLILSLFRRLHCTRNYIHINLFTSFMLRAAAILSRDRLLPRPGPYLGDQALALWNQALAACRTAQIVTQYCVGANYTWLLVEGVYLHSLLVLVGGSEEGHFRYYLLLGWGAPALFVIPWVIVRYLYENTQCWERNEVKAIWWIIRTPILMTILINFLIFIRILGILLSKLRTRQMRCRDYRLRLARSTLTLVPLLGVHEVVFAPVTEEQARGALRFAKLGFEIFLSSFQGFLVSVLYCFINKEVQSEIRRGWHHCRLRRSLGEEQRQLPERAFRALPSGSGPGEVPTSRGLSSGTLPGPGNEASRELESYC
Summary of the method: as §1

GLP-1R, sequence (P43220 24-463): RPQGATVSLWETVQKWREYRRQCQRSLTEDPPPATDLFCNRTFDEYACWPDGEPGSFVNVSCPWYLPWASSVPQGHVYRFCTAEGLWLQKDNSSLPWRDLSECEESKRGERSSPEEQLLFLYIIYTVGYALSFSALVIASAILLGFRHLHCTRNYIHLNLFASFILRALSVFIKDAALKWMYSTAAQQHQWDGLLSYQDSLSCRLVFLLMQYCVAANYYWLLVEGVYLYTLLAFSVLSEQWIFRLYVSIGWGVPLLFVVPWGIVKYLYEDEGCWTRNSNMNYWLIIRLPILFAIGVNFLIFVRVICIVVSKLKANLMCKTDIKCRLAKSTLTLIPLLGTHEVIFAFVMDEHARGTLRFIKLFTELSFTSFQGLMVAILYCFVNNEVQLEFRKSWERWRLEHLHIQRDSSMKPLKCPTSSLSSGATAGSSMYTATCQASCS

| Compound | Emax [1] | EC50 ([1]; read-out: EC50 GLP-1R/nM) | Emax [2] | EC50 ([2]; read-out: EC50 GIP-R/nM) | EC50 ([1]; EC50 GLP-1R/nM) | EC50 ([2]; EC50 GIP-R/nM) |
| --- | --- | --- | --- | --- | --- | --- |
| CCCCCCCCCCCCCCCC(=O)N[C@@H](CCC(=O)NCCCC[C@H](NC(=O)[C@H](CO)NC(=O)[C@@H]1CCCN1C(=O)[C@@H]1CCCN1C(=O)[C@@H]1CCCN1C(=O)[C@H](C)NC(=O)CNC(=O)[C@H](CO)NC(=O)[C@H](CO)NC(=O)[C@@H]1CCCN1C(=O)CNC(=O)CNC(=O)[C@H](C)NC(=O)[C@H](CC(C)C)NC(=O)[C@H](CC(C)C)NC(=O)[C@H](Cc1c[nH]c2ccccc12)NC(=O)[C@H](CC(N)=O)NC(=O)[C@@H](NC(=O)[C@H](Cc1ccccc1)NC(=O)[C@H](CCC(=O)O)NC(=O)C(C)(C)NC(=O)[C@H](C)NC(=O)[C@H](C)NC(=O)[C@H](CCC(N)=O)NC(=O)[C@H](CCCCN)NC(=O)[C@H](CC(=O)O)NC(=O)[C@H](CC(C)C)NC(=O)[C@H](Cc1ccc(O)cc1)NC(=O)[C@@H](NC(=O)[C@H](CO)NC(=O)[C@H](Cc1ccc(O)cc1)NC(=O)[C@H](CC(=O)O)NC(=O)[C@H](CO)NC(=O)[C@@H](NC(=O)[C@H](Cc1ccccc1)NC(=O)[C@@H](NC(=O)CNC(=O)[C@H](CCc1nn[nH]n1)NC(=O)CSCC(=O)NCCN1CCCCC1=O)[C@@H](C)O)[C@@H](C)O)[C@@H](C)CC)C(C)C)C(N)=O)C(=O)O [Compound 221] | 95% | 1 to 10 nM | 68% | 1 to 10 nM | – | – |
| CCCCCCCCCCCCCCCC(=O)N[C@@H](CCC(=O)NCCCC[C@H](NC(=O)[C@H](CO)NC(=O)[C@@H]1CCCN1C(=O)[C@@H]1CCCN1C(=O)[C@@H]1CCCN1C(=O)[C@H](C)NC(=O)CNC(=O)[C@H](CO)NC(=O)[C@H](CO)NC(=O)[C@@H]1CCCN1C(=O)CNC(=O)CNC(=O)[C@H](C)NC(=O)[C@H](CC(C)C)NC(=O)[C@H](CC(C)C)NC(=O)[C@H](Cc1c[nH]c2ccccc12)NC(=O)[C@H](CC(N)=O)NC(=O)[C@@H](NC(=O)[C@H](Cc1ccccc1)NC(=O)[C@H](CCC(=O)O)NC(=O)C(C)(C)NC(=O)[C@H](C)NC(=O)[C@H](C)NC(=O)[C@H](CCC(N)=O)NC(=O)[C@H](CCCCN)NC(=O)[C@H](CC(=O)O)NC(=O)[C@H](CC(C)C)NC(=O)[C@H](Cc1ccc(O)cc1)NC(=O)[C@@H](NC(=O)[C@H](CO)NC(=O)[C@H](Cc1ccc(O)cc1)NC(=O)[C@H](CC(=O)O)NC(=O)[C@H](CO)NC(=O)[C@@H](NC(=O)[C@H](Cc1ccccc1)NC(=O)[C@@H](NC(=O)CNC(=O)[C@@H](Cc1nn[nH]n1)NC(=O)CSCC(=O)NCCN1CCCCC1=O)[C@@H](C)O)[C@@H](C)O)[C@@H](C)CC)C(C)C)C(N)=O)C(=O)O [Compound 224] (X6-[X8]GTFTSDYSIYLDKQAA[Aib]EFVNWLLAGGPSSGAPPPSK([γGlu-Palmitoyl])-NH2) | 98% | 0.1 to 1 nM | 76% | 10 to 100 nM | – | – |
| CCCCCCCCCCCCCCCC(=O)N[C@@H](CCC(=O)NCCCC[C@H](NC(=O)[C@H](CO)NC(=O)[C@@H]1CCCN1C(=O)[C@@H]1CCCN1C(=O)[C@@H]1CCCN1C(=O)[C@H](C)NC(=O)CNC(=O)[C@H](CO)NC(=O)[C@H](CO)NC(=O)[C@@H]1CCCN1C(=O)CNC(=O)CNC(=O)[C@H](C)NC(=O)[C@H](CC(C)C)NC(=O)[C@H](CC(C)C)NC(=O)[C@H](Cc1c[nH]c2ccccc12)NC(=O)[C@H](CC(N)=O)NC(=O)[C@@H](NC(=O)[C@H](Cc1ccccc1)NC(=O)[C@H](CCC(=O)O)NC(=O)C(C)(C)NC(=O)[C@H](C)NC(=O)[C@H](C)NC(=O)[C@H](CCC(N)=O)NC(=O)[C@H](CCCCN)NC(=O)[C@H](CC(=O)O)NC(=O)[C@H](CC(C)C)NC(=O)[C@H](Cc1ccc(O)cc1)NC(=O)[C@@H](NC(=O)[C@H](CO)NC(=O)[C@H](Cc1ccc(O)cc1)NC(=O)[C@H](CC(=O)O)NC(=O)[C@H](CO)NC(=O)[C@@H](NC(=O)[C@H](Cc1ccccc1)NC(=O)[C@@H](NC(=O)CNC(=O)[C@H](CCC(=O)O)NC(=O)CSCC(=O)NCCN1C(=O)c2ccc(C)cc2C1=O)[C@@H](C)O)[C@@H](C)O)[C@@H](C)CC)C(C)C)C(N)=O)C(=O)O [Compound 247] | 102% | – | 110% | – | 0.1 to 1 nM | < 0.1 nM |
| CCCCCCCCCCCCCCCC(=O)N[C@@H](CCC(=O)NCCCC[C@H](NC(=O)[C@H](CO)NC(=O)[C@@H]1CCCN1C(=O)[C@@H]1CCCN1C(=O)[C@@H]1CCCN1C(=O)[C@H](C)NC(=O)CNC(=O)[C@H](CO)NC(=O)[C@H](CO)NC(=O)[C@@H]1CCCN1C(=O)CNC(=O)CNC(=O)[C@H](C)NC(=O)[C@H](CC(C)C)NC(=O)[C@H](CC(C)C)NC(=O)[C@H](Cc1c[nH]c2ccccc12)NC(=O)[C@H](CC(N)=O)NC(=O)[C@@H](NC(=O)[C@H](Cc1ccccc1)NC(=O)[C@H](CCC(=O)O)NC(=O)C(C)(C)NC(=O)[C@H](C)NC(=O)[C@H](C)NC(=O)[C@H](CCC(N)=O)NC(=O)[C@H](CCCCN)NC(=O)[C@H](CC(=O)O)NC(=O)[C@H](CC(C)C)NC(=O)[C@H](Cc1ccc(O)cc1)NC(=O)[C@@H](NC(=O)[C@H](CO)NC(=O)[C@H](Cc1ccc(O)cc1)NC(=O)[C@H](CC(=O)O)NC(=O)[C@H](CO)NC(=O)[C@@H](NC(=O)[C@H](Cc1ccccc1)NC(=O)[C@@H](NC(=O)CNC(=O)[C@H](CCC(=O)O)NC(=O)CSCC(=O)NCCN1C(=O)c2cccc3cccc(c23)C1=O)[C@@H](C)O)[C@@H](C)O)[C@@H](C)CC)C(C)C)C(N)=O)C(=O)O [Compound 248] | 80% | 10 to 100 nM | 105% | 1 to 10 nM | – | – |
| CCCCCCCCCCCCCCCC(=O)N[C@@H](CCC(=O)NCCCC[C@H](NC(=O)[C@H](CO)NC(=O)[C@@H]1CCCN1C(=O)[C@@H]1CCCN1C(=O)[C@@H]1CCCN1C(=O)[C@H](C)NC(=O)CNC(=O)[C@H](CO)NC(=O)[C@H](CO)NC(=O)[C@@H]1CCCN1C(=O)CNC(=O)CNC(=O)[C@H](C)NC(=O)[C@H](CC(C)C)NC(=O)[C@H](CC(C)C)NC(=O)[C@H](Cc1c[nH]c2ccccc12)NC(=O)[C@H](CC(N)=O)NC(=O)[C@@H](NC(=O)[C@H](Cc1ccccc1)NC(=O)[C@H](CCC(=O)O)NC(=O)C(C)(C)NC(=O)[C@H](C)NC(=O)[C@H](C)NC(=O)[C@H](CCC(N)=O)NC(=O)[C@H](CCCCN)NC(=O)[C@H](CC(=O)O)NC(=O)[C@H](CC(C)C)NC(=O)[C@H](Cc1ccc(O)cc1)NC(=O)[C@@H](NC(=O)[C@H](CO)NC(=O)[C@H](Cc1ccc(O)cc1)NC(=O)[C@H](CC(=O)O)NC(=O)[C@H](CO)NC(=O)[C@@H](NC(=O)[C@H](Cc1ccccc1)NC(=O)[C@@H](NC(=O)CNC(=O)[C@H](CCC(=O)O)NC(=O)CSCC(=O)NCCN1C(=O)c2cc3ccccc3cc2C1=O)[C@@H](C)O)[C@@H](C)O)[C@@H](C)CC)C(C)C)C(N)=O)C(=O)O [Compound 249] | 101% | – | 105% | – | 10 to 100 nM | 1 to 10 nM |
| CCCCCCCCCCCCCCCC(=O)N[C@@H](CCC(=O)NCCCC[C@H](NC(=O)[C@H](CO)NC(=O)[C@@H]1CCCN1C(=O)[C@@H]1CCCN1C(=O)[C@@H]1CCCN1C(=O)[C@H](C)NC(=O)CNC(=O)[C@H](CO)NC(=O)[C@H](CO)NC(=O)[C@@H]1CCCN1C(=O)CNC(=O)CNC(=O)[C@H](C)NC(=O)[C@H](CC(C)C)NC(=O)[C@H](CC(C)C)NC(=O)[C@H](Cc1c[nH]c2ccccc12)NC(=O)[C@H](CC(N)=O)NC(=O)[C@@H](NC(=O)[C@H](Cc1ccccc1)NC(=O)[C@H](CCC(=O)O)NC(=O)C(C)(C)NC(=O)[C@H](C)NC(=O)[C@H](C)NC(=O)[C@H](CCC(N)=O)NC(=O)[C@H](CCCCN)NC(=O)[C@H](CC(=O)O)NC(=O)[C@H](CC(C)C)NC(=O)[C@H](Cc1ccc(O)cc1)NC(=O)[C@@H](NC(=O)[C@H](CO)NC(=O)[C@H](Cc1ccc(O)cc1)NC(=O)[C@H](CC(=O)O)NC(=O)[C@H](CO)NC(=O)[C@@H](NC(=O)[C@H](Cc1ccccc1)NC(=O)[C@@H](NC(=O)CNC(=O)[C@H](CCC(=O)O)NC(=O)C(C)(C)C(=O)NCCn1ccccc1=O)[C@@H](C)O)[C@@H](C)O)[C@@H](C)CC)C(C)C)C(N)=O)C(=O)O [Compound 254] | – | < 0.1 nM | 80% | 1 to 10 nM | – | – |
| CCCCCCCCCCCCCCCC(=O)N[C@@H](CCC(=O)NCCCC[C@H](NC(=O)[C@H](CO)NC(=O)[C@@H]1CCCN1C(=O)[C@@H]1CCCN1C(=O)[C@@H]1CCCN1C(=O)[C@H](C)NC(=O)CNC(=O)[C@H](CO)NC(=O)[C@H](CO)NC(=O)[C@@H]1CCCN1C(=O)CNC(=O)CNC(=O)[C@H](C)NC(=O)[C@H](CC(C)C)NC(=O)[C@H](CC(C)C)NC(=O)[C@H](Cc1c[nH]c2ccccc12)NC(=O)[C@H](CC(N)=O)NC(=O)[C@@H](NC(=O)[C@H](Cc1ccccc1)NC(=O)[C@H](CCC(=O)O)NC(=O)C(C)(C)NC(=O)[C@H](C)NC(=O)[C@H](C)NC(=O)[C@H](CCC(N)=O)NC(=O)[C@H](CCCCN)NC(=O)[C@H](CC(=O)O)NC(=O)[C@H](CC(C)C)NC(=O)[C@H](Cc1ccc(O)cc1)NC(=O)[C@@H](NC(=O)[C@H](CO)NC(=O)[C@H](Cc1ccc(O)cc1)NC(=O)[C@H](CC(=O)O)NC(=O)[C@H](CO)NC(=O)[C@@H](NC(=O)[C@H](Cc1ccccc1)NC(=O)[C@@H](NC(=O)CNC(=O)[C@H](CCC(=O)O)NC(=O)C(C)(C)C(=O)NCCN1CCOCC1=O)[C@@H](C)O)[C@@H](C)O)[C@@H](C)CC)C(C)C)C(N)=O)C(=O)O [Compound 257] | – | < 0.1 nM | 40% | 10 to 100 nM | – | – |
